Key:
Experiment in all cases: relative viability (nuclei count vs DMSO), 5 days (fraction); higher = more cells survive
[1] = compound: CC1=C(C(=NN1)C)CC2=C(C3=C(S2)N(C(=O)N(C3=O)C)CC(C)C)C(=O)N4C[C@@H](CO4)O + CC(=O)c1c(C)c2cnc(Nc3ccc(N4CCNCC4)cn3)nc2n(C2CCCC2)c1=O [Palbociclib] (partner 0.5 µM)
Procedure, shortened: (§1)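 Nuclei were stained with Hoechst during a one-step fixation (final 0.05% Triton X-100, 1% formaldehyde, 1 ug/ml Hoechst) carried out 5 days after dosing, then counted on 4× images. The cells, lung cancer lines in 1536-well plates, had been dosed by pin tool the day after seeding with one drug alone or a fixed anchor-drug dose plus five library-drug doses (not always all listed) in √10 steps. Relative viability is the nuclei count in treated wells divided by that in vehicle wells, and each value is the median of duplicate plates.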

[2] = compound: CC1=C(C(=NN1)C)CC2=C(C3=C(S2)N(C(=O)N(C3=O)C)CC(C)C)C(=O)N4C[C@@H](CO4)O + CS(=O)(=O)CCNCc1ccc(-c2ccc3ncnc(Nc4ccc(OCc5cccc(F)c5)c(Cl)c4)c3c2)o1 [Lapatinib] (partner 2 µM)
Procedure, shortened: as §1

IDH-C35 + Luminespib = compound: Cc1ccccc1C(C(=O)NC1CCCCC1)N(C(=O)Cn1ccnc1C)c1cccc(F)c1 [IDH-C35] + CCNC(=O)c1noc(-c2cc(C(C)C)c(O)cc2O)c1-c1ccc(CN2CCOCC2)cc1 [Luminespib] (partner 0.01 µM)
Procedure, shortened: as §1

IDH-C35 + Tozasertib = compound: Cc1ccccc1C(C(=O)NC1CCCCC1)N(C(=O)Cn1ccnc1C)c1cccc(F)c1 [IDH-C35] + Cc1cc(Nc2cc(N3CCN(C)CC3)nc(Sc3ccc(NC(=O)C4CC4)cc3)n2)n[nH]1 [Tozasertib] (partner 0.1 µM)
Procedure, shortened: as §1

Cell Line: UMC-11
- relative viability ([1]; first compound 0.0025 µM): 0.333
- relative viability ([1]; first compound 0.007906 µM): 0.31
- relative viability ([1]; first compound 0.025 µM): 0.296
- relative viability ([1]; first compound 0.07906 µM): 0.29
- relative viability ([1]; first compound 0.25 µM): 0.339
- relative viability ([2]; first compound 0.0025 µM): 1.12
- relative viability ([2]; first compound 0.007906 µM): 1.03
- relative viability ([2]; first compound 0.025 µM): 0.957
- relative viability ([2]; first compound 0.07906 µM): 1.01
- relative viability ([2]; first compound 0.25 µM): 1.05
- relative viability (IDH-C35 + Luminespib; first compound 0.08 µM): 1.01
- relative viability (IDH-C35 + Luminespib; first compound 0.253 µM): 1.03
- relative viability (IDH-C35 + Luminespib; first compound 0.8 µM): 1.02
- relative viability (IDH-C35 + Luminespib; first compound 2.53 µM): 1.08
- relative viability (IDH-C35 + Luminespib; first compound 8 µM): 1.01
- relative viability (IDH-C35 + Tozasertib; first compound 0.08 µM): 0.199
- relative viability (IDH-C35 + Tozasertib; first compound 0.253 µM): 0.198
- relative viability (IDH-C35 + Tozasertib; first compound 0.8 µM): 0.197
- relative viability (IDH-C35 + Tozasertib; first compound 2.53 µM): 0.198
- relative viability (IDH-C35 + Tozasertib; first compound 8 µM): 0.193

From the supplement of paper PMC10307832
